Assays:
Format in all cases: cell-based
MOR = MOR (Homo sapiens, UniProt P35372); test: GloSensor assay at MOR; details: given as Log IC50 (negative values)
DOR = DOR (Homo sapiens, UniProt P41143); test: GloSensor assay at DOR; details: given as Log IC50 (negative values)
human KOR = human KOR (Homo sapiens, UniProt P41145); test: GloSensor assay, Gi-mediated cAMP inhibition in HEK-293T cells transfected with human KOR; details: given as Log IC50 (negative values); agonist activity, inhibition of FSK-stimulated cAMP; read-out: GloSensor Assay (Log IC50) KOR (converted)
Sequence of human KOR (P41145 whole entry): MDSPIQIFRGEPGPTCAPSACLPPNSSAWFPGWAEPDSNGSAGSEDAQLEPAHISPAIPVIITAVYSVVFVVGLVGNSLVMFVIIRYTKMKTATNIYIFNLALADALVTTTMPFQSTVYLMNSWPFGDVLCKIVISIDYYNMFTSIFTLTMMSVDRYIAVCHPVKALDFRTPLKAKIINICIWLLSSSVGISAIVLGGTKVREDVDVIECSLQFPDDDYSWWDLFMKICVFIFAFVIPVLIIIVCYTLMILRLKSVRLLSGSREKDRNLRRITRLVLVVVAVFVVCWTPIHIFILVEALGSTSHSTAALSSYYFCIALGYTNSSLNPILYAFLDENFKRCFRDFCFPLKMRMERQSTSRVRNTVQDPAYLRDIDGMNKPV

Sequence of DOR (P41143 whole entry): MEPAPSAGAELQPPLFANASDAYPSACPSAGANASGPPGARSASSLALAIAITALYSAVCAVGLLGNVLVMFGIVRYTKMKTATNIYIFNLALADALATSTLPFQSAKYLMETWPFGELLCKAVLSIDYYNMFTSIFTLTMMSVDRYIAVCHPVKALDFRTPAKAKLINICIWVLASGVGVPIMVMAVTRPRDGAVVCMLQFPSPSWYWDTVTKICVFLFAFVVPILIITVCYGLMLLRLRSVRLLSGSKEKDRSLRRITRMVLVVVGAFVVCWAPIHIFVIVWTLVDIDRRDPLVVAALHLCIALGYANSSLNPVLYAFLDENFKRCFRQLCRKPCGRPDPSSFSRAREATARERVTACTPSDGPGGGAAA
Sequence of MOR (P35372 whole entry): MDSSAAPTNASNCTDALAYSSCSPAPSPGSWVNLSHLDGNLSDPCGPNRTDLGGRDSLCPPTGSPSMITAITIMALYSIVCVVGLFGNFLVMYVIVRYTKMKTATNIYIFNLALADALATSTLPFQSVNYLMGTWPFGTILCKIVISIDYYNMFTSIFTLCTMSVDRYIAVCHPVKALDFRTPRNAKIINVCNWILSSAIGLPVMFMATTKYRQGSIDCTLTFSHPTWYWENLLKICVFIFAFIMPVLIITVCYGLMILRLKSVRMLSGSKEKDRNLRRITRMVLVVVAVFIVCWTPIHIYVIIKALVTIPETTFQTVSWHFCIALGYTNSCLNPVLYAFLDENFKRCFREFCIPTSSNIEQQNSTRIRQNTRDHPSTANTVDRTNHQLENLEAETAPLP

| IC50 (MOR) [µM] | IC50 (DOR) [µM] | IC50 (human KOR) [µM] | SMILES |
| --- | --- | --- | --- |
| > 10 | > 10 | > 10 | c1ccc(-c2c3c4[nH]c5ccccc5c4cc[n+]3cn2-c2ccccc2)cc1 [8aaa, 1,2-Diphenyl-2,11-dihydroimidazo[1′,5′:1,2]pyrido[3,4-b]indol-4-ium chloride] |
| > 10 | > 10 | 0.0661 | Brc1ccc(-n2c[n+]3ccc4c5ccccc5[nH]c4c3c2-c2ccccc2)cc1 [8aab, 2-(4-Bromophenyl)-1-phenyl-2,11-dihydroimidazo[1′,5′:1,2]pyrido[3,4-b]indol-4-ium chloride] |
| > 10 | > 10 | 0.126 | Clc1ccc(-n2c[n+]3ccc4c5ccccc5[nH]c4c3c2-c2ccccc2)cc1 [8aac, 2-(4-Chlorophenyl)-1-phenyl-2,11-dihydroimidazo[1′,5′:1,2]pyrido[3,4-b]indol-4-ium chloride] |
| > 10 | > 10 | 0.269 | Fc1ccc(-n2c[n+]3ccc4c5ccccc5[nH]c4c3c2-c2ccccc2)cc1 [8aad, 2-(4-Fluorophenyl)-1-phenyl-2,11-dihydroimidazo[1′,5′:1,2]pyrido[3,4-b]indol-4-ium chloride] |
| > 10 | > 10 | > 10 | Brc1cccc(-n2c[n+]3ccc4c5ccccc5[nH]c4c3c2-c2ccccc2)c1 [8aae, 2-(3-Bromophenyl)-1-phenyl-2,11-dihydrolmidazo[1′,5′:1,2]pyrido[3,4-b]indol-4-ium chloride] |
| > 10 | > 10 | > 10 | Clc1cccc(-n2c[n+]3ccc4c5ccccc5[nH]c4c3c2-c2ccccc2)c1 [8aaf, 2-(3-Chlorophenyl)-1-phenyl-2,11-dihydroimidazo[1′,5′:1,2]pyrido[3,4-b]indol-4-ium chloride] |
| > 10 | > 10 | 0.0708 | Brc1ccc(-c2c3c4[nH]c5ccccc5c4cc[n+]3cn2-c2ccccc2)cc1 [8aba, 1-(4-Bromophenyl)-2-phenyl-2,11-dihydroimidazo[1′,5′:1,2]pyrido[3,4-b]indol-4-ium chloride] |
| > 10 | > 10 | > 10 | Brc1ccc(-c2c3c4[nH]c5ccccc5c4cc[n+]3cn2-c2ccc(Br)cc2)cc1 [8abb, 1,2-Bis(4-bromophenyl)-2,11-dihydroimidazo[1′,5′:1,2]pyrido[3,4-b]indol-4-ium chloride] |
| > 10 | > 10 | > 10 | Clc1cccc(-n2c[n+]3ccc4c5ccccc5[nH]c4c3c2-c2ccc(Br)cc2)c1 [8abf, 1-(4-Bromophenyl)-2-(3-chlorophenyl)-2,11-dihydroimidazo[1′,5′:1,2]pyrido[3,4-b]indol-4-ium chloride] |
| > 10 | > 10 | > 10 | COc1ccc(-n2c[n+]3ccc4c5ccccc5[nH]c4c3c2-c2ccc(Br)cc2)cc1 [8abg, 1-(4-Bromophenyl)-2-(4-methoxyphenyl)-2,11-dihydrolmidazo[1′,5′:1,2]pyrido[3,4-b]indol-4-ium chloride] |
| > 10 | > 10 | > 10 | FC(F)(F)Oc1ccc(-n2c[n+]3ccc4c5ccccc5[nH]c4c3c2-c2ccc(Br)cc2)cc1 [8abh] |
| > 10 | > 10 | > 10 | Fc1cccc(-n2c[n+]3ccc4c5ccccc5[nH]c4c3c2-c2ccc(Br)cc2)c1 [8abi, 1-(4-Bromophenyl)-2-(3-fluorophenyl)-2,11-dihydroimidazo[1′,5′:1,2]pyrido[3,4-b]indol-4-ium chloride] |
| 0.251 | > 10 | 0.251 | Clc1ccccc1-n1c[n+]2ccc3c4ccccc4[nH]c3c2c1-c1ccc(Br)cc1 [8abj, 1-(4-Bromophenyl)-2-(2-chlorophenyl)-2,11-dihydroimidazo[1′,5′:1,2]pyrido[3,4-b]indol-4-ium] |
| > 10 | > 10 | 0.0794 | Fc1ccccc1-n1c[n+]2ccc3c4ccccc4[nH]c3c2c1-c1ccc(Br)cc1 [8abk, 1-(4-Bromophenyl)-2-(2-fluorophenyl)-2,11-dihydroimidazo[1′,5′:1,2]pyrido[3,4-b]indol-4-ium chloride] |
| > 10 | > 10 | > 10 | Fc1ccc(-n2c[n+]3ccc4c5ccccc5[nH]c4c3c2-c2ccc(Br)cc2)c(Cl)c1 [8abl, 1-(4-Bromophenyl)-2-(2-chloro-4-fluorophenyl)-2,11-dihydrolmidazo[1′,5′:1,2]pyrido[3,4-b]indol-4-ium chloride] |
| > 10 | > 10 | > 10 | Fc1ccc(-n2c[n+]3ccc4c5ccccc5[nH]c4c3c2-c2ccc(Br)cc2)cc1F [8abm, 1-(4-Bromophenyl)-2-(3,4-difluorophenyl)-2,11-dihydroimidazo[1′,5′:1,2]pyrido[3,4-b]indol-4-ium chloride] |
| > 10 | 3.16 | 0.2 | Brc1ccccc1-c1c2c3[nH]c4ccccc4c3cc[n+]2cn1-c1ccccc1 [8aca, 1-(2-Bromophenyl)-2-phenyl-2,11-dihydroimidazo[1′,5′:1,2]pyrido[3,4-b]indol-4-ium chloride] |
| > 10 | > 10 | 0.0631 | Clc1cccc(-n2c[n+]3ccc4c5ccccc5[nH]c4c3c2-c2ccccc2Br)c1 [8acf, 1-(2-Bromophenyl)-2-(3-chlorophenyl)-2,11-dihydroimidazo[1′,5′:1,2]pyrido[3,4-b]indol-4-ium chloride] |
| > 10 | > 10 | 0.0631 | Fc1cccc(-n2c[n+]3ccc4c5ccccc5[nH]c4c3c2-c2ccccc2Br)c1 [8aci, 1-(2-Bromophenyl)-2-(3-fluorophenyl)-2,11-dihydroimidazo[1′,5′:1,2]pyrido[3,4-b]indol-4-ium] |
| > 10 | > 10 | > 10 | Clc1ccc(-c2c3c4[nH]c5ccccc5c4cc[n+]3cn2-c2cccc(Br)c2)cc1 [8ade, 2-(3-Bromophenyl)-1-(4-chlorophenyl)-2,11-dihydroimidazo[1′,5′:1,2]pyrido[3,4-b]indol-4-ium chloride] |
| > 10 | > 10 | > 10 | Clc1ccc(-c2c3c4[nH]c5ccccc5c4cc[n+]3cn2-c2cccc(Cl)c2)cc1 [8adf, 2-(3-Chlorophenyl)-1-(4-chlorophenyl)-2,11-dihydroimidazo[1′,5′:1,2]pyrido[3,4-b]indol-4-ium chloride] |
| > 10 | > 10 | 0.794 | COc1ccc(-n2c[n+]3ccc4c5ccccc5[nH]c4c3c2-c2ccc(Cl)cc2)cc1 [8adg, 1-(4-Chlorophenyl)-2-(4-methoxyphenyl)-2,11-dihydroimidazo[1′,5′:1,2]pyrido[3,4-b]indol-4-ium chloride] |
| > 10 | > 10 | > 10 | Clc1ccccc1-c1c2c3[nH]c4ccccc4c3cc[n+]2cn1-c1ccccc1 [8aea, 1-(2-Chlorophenyl)-2-phenyl-2,11-dihydroimidazo[1′,5′:1,2]pyrido[3,4-b]indol-4-ium chloride] |
|  |  | 0.251 | Clc1ccc(-c2c3c4[nH]c5ccccc5c4c4ccccc4[n+]3cn2-c2ccc(Br)cc2)cc1 [12db, 2(4-Bromophenyl-1-(4-chlorophenyl)-2,13-dihydroimidazo[1,5-a]indolo[2,3-c]quinolin-4-ium chloride] |

— patent US20250368645A1, “BETA CARBOLINE ANALOGUES AS SELECTIVE AND BIASED KAPPA OPIOID RECEPTORS AGONISTS FOR TREATING VARIOUS ASSOCIATED PATHOPHYSIOLOGICAL CONDITIONS” (COUNCIL OF SCIENTIFIC AND INDUSTRIAL RESEARCH, priority 2022, published 2025)
